Legend:
Type in all cases: functional, cell-based
MCF7 [1] = experiment: Cytotoxicity against human MCF7 cells after 24 hrs; conditions: MCF7, 24 h
SK-BR-3 = experiment: Cytotoxicity against human SKBR3 cells after 24 hrs; conditions: SK-BR-3, 24 h
MCF7 [2] = experiment: Induction of Her2 degradation in human MCF7 cells by Western blotting analysis

SMILES | IC50 (MCF7 [1]) | IC50 (SK-BR-3) | Activity (MCF7 [2])
CO[C@H]1/C=C/C=C(\C)C(=O)NC2=CC(=O)C(NCCCCCCCCCCCCNC3=C4C[C@@H](C)C[C@H](OC)[C@H](O)[C@@H](C)/C=C(\C)[C@H](OC(N)=O)[C@@H](OC)/C=C/C=C(\C)C(=O)NC(=CC3=O)C4=O)=C(C[C@@H](C)C[C@H](OC)[C@H](O)[C@@H](C)/C=C(\C)[C@@H]1OC(N)=O)C2=O | 0.628 µM | 0.296 µM | –
COc1cc(Cc2nc3c(N)ncnc3n2CCCC#CCNCCCCCCCCCCCCN)cc(OC)c1OC | 55.1 µM | 13.1 µM | –
COc1cc(Cc2nc3c(N)ncnc3n2CCCC#CCNCCCCNCC#CCCCn2c(Cc3cc(OC)c(OC)c(OC)c3)nc3c(N)ncnc32)cc(OC)c1OC | > 100 µM | > 100 µM | –
CO[C@H]1/C=C/C=C(\C)C(=O)NC2=CC(=O)C(NCCCCCCCCCCCCCCCCNC3=C4C[C@@H](C)C[C@H](OC)[C@H](O)[C@@H](C)/C=C(\C)[C@H](OC(N)=O)[C@@H](OC)/C=C/C=C(\C)C(=O)NC(=CC3=O)C4=O)=C(C[C@@H](C)C[C@H](OC)[C@H](O)[C@@H](C)/C=C(\C)[C@@H]1OC(N)=O)C2=O | 0.431 µM | 0.15 µM | –
COc1cc(Cc2nc3c(N)ncnc3n2CCCC#CCNCCCCCCCCCCCCCCCCNCC#CCCCn2c(Cc3cc(OC)c(OC)c(OC)c3)nc3c(N)ncnc32)cc(OC)c1OC | 1.57 µM | 3.18 µM | –
COc1cc(Cc2nc3c(N)ncnc3n2CCCC#CCNCCCCCCCCNCC#CCCCn2c(Cc3cc(OC)c(OC)c(OC)c3)nc3c(N)ncnc32)cc(OC)c1OC | 30.6 µM | 85.7 µM | –
C#CCCCn1c(Cc2cc(OC)c(OC)c(OC)c2)nc2c(N)ncnc21 | 45.9 µM | 31.8 µM | –
COc1cc(Cc2nc3c(N)ncnc3n2CCCC#CCNCCCCCCCCCCCCCCCCCCCCNCC#CCCCn2c(Cc3cc(OC)c(OC)c(OC)c3)nc3c(N)ncnc32)cc(OC)c1OC | 1.46 µM | 1.31 µM | –
C[C@@H]1C[C@H]2O[C@@H]2/C=C\C=C\C(=O)Cc2c(Cl)c(O)cc(O)c2C(=O)O1 [RADICICOL] | 0.0892 µM | 0.00364 µM | –
CO[C@H]1/C=C/C=C(\C)C(=O)NC2=CC(=O)C(NCCCCNC3=C4C[C@@H](C)C[C@H](OC)[C@H](O)[C@@H](C)/C=C(\C)[C@H](OC(N)=O)[C@@H](OC)/C=C/C=C(\C)C(=O)NC(=CC3=O)C4=O)=C(C[C@@H](C)C[C@H](OC)[C@H](O)[C@@H](C)/C=C(\C)[C@@H]1OC(N)=O)C2=O | 1.11 µM | 0.258 µM | –
COc1cc(Cc2nc3c(N)ncnc3n2CCCC#CCO)cc(OC)c1OC | > 100 µM | > 100 µM | –
COc1cc(Cc2nc3c(N)ncnc3n2CCCC#CCNCCCCCCCCCCCCNCC#CCCCn2c(Cc3cc(OC)c(OC)c(OC)c3)nc3c(N)ncnc32)cc(OC)c1OC | 4.68 µM | 5.73 µM | Dose-dependent effect

Source: ChEMBL document CHEMBL1150403, “Synthesis of Hsp90 inhibitor dimers as potential antitumor agents” (Bioorg Med Chem, 2008)
